Data from patent US7879821B2, “Method for modulating inflammatory responses by altering plasma lipid levels” (University of Medicine and Dentistry of New Jersey, priority 2006, dated 2011).
“Also recorded” adds a separate entry of the source.

How the values were obtained:
PMN [1] = experiment: Store-operated calcium entry (SOCE) initiated by fMLP and Tg in PMN; format: cell-based, human
Method: We hypothesized that calcium-entry dependent functions like RB would depend upon S1P synthesis and subsequent S1P interactions with rafts. Thus we developed a calcium-entry dependent RB model where Ca entry was manipulated by sphingosine kinase (SphK) inhibition, which inhibits S1P synthesis in response to internal calcium store release. […] Note that the vast majority of cell [Ca^2+] increases are due to calcium influx on re-calcifying the medium.
(§1) PMN were suspended in HEPES buffer with 1 mM CaCl2 and 0.1% BSA and incubated with 2 μg/mL fura-2AM for 30 minutes in the dark at 37° C. Cells were divided into aliquots (2×10^6 PMN) and placed on ice in the dark. Prior to study, samples were warmed to 37°, centrifuged (4500 RPM, 5 sec) and supernatants removed. Pellets were resuspended in 200 μl of BSA-free and ‘nominally calcium-free’ HEPES buffer (with 0.3 mM EGTA) and finally injected into cuvettes containing 2.8 mL of the same buffer for study. Intracellular free calcium concentration ([Ca2+]i) was determined from the fluorescence at 505 nm using 340/380 nm dual wavelength excitation. (Fluoromax-2, Jobin-SPEX, Edison, N.J.).

PMN lipid raft fractions = experiment: Cholesterol content of PMN lipid raft fractions isolated by ultracentrifugation; format: cell-based, human; conditions: for ratio of cholesterol to protein / cholesterol concentration in the lowest density raft fractions: PMN pretreated, micromolar concentrations, absence of albumin; for change of cholesterol in raft fractions versus higher density fractions: cholesterol 10 μg/ml 10 minutes or MβCD 10 μM/10 min
Method: Lipid raft fractions were isolated by ultracentrifugation from PMN treated with S1P, cholesterol or buffer only (“none”). […] After isolation from 2-3 normal volunteer donors, 5×10^7 PMN were divided into aliquots. Aliquots were treated at 37° C. with 10 μg/ml water-soluble cholesterol for 10 minutes, MβCD (10 μM/10 min) or with vehicle. All steps thereafter were performed on ice. Cells were spun and pellets resuspended in 1 ml of base buffer (20 mM Tris-HCl pH 7.8, 250 mM Sucrose, 1 mM CaCl2 and 1 mM MgCl2) containing protease inhibitor and 50 μg/ml calpain inhibitor 1. Cells were disrupted by passage through a 22 g 3″ needle 10 times. Fragmented cells were sonicated 5×20 s, cooling the cells on ice between sonications. […] The cell pellets were resuspended in 1 ml base buffer with inhibitors and the sonication repeated. The two postnuclear supernatants were combined and an equal volume of 50% Optiprep added. […] Tubes were then centrifuged (52,000 g; 3 hours) and serial 670 μl fractions were collected from the top of the tube using careful pipetting. Protein in each fraction was assayed by micro BCA assay method (Pierce, Rockford Ill.). Cholesterol was assayed using an Amplex Red cholesterol assay kit (Molecular Probes). Alkaline phosphatase was assayed using p-nitrophenyl phosphate as substrate. […] No detergents were used in raft preparation.

PMN [2] = experiment: Calcium-entry dependent respiratory burst (RB) initiated by fMLP/Tg in PMN; format: cell-based, human; conditions: for effect of cholesterol depletion on fMLP/Tg RB: MBCD 10 mM/10 min, fMLP/TG 100 nM/1 uM
Method: The graph represents Vmax slopes values. n=2 for Blank, Cholesterol Blank and Cholesterol alone. The others are n=6.
RB was assessed in PMN suspensions. Briefly, 2×10^6 PMN were suspended in 3 ml of HEPES buffer with 0.1% BSA and 15 ng/ml of 1,2,3-dihydrorhodamine (DHR) added. Cells were studied at 37° C. with constant stirring using excitation at 488 nm and emission at 530 nm. RB was allowed to become linear and achieve maximal reaction rate (Vmax). The fluorescent intensity (FI) curve of oxidized DHR was compiled for 60 seconds during Vmax. Curve-fitting analysis was performed over the linear portion (Sigma-Plot 4.0, SPSS, Chicago, Ill.). Vmax was assessed as the first derivative of the fluorescent intensity in counts per second (CPS).
Next we evaluated the functional relevance of cholesterol-mediated Ca^2+ influx. We studied a PMN model where RB depends entirely on extra-cellular calcium entry to see if RB would vary with the incorporation of cholesterol into rafts.
To do this, PMN were pre-incubated with MβCD, with vehicle or with varying concentrations of cholesterol to vary membrane raft cholesterol content (FIG. 21B). After the pre-incubation, RB was initiated using fMLP/Tg.

human neutrophils (PMN) = experiment: Cholesterol-mediated Ca2+ influx in human PMN (fura-2 calcium spectrofluorometry); format: cell-based; conditions: for effect of calcium channel blocker on cholesterol-mediated PMN calcium entry: dose response curves not shown; for effect on cholesterol mediated Ca2+ influx (actin reorganization): Caly A 50 nM in cuvette, Cyto D pretreatment 2.5 uM 15 min, cholesterol 10 ug/ml
PMN [3] = experiment: fMLP-mediated Ca2+ entry in PMN; format: cell-based, human
Method: as §1
To confirm that the effects of cholesterol on GPCR mediated Ca^2+ entry were generalized and not restricted to PAF we evaluated the effects of cholesterol on fMLP-mediated Ca^2+ entry. Consistent with PAF, fMLP-linked Ca^2+ entry responses were suppressed by MβCD and augmented by cholesterol (FIG. 23, upper panel).

TRPC1 = experiment: Western blotting for TRPC1 in PMN raft fractions; format: cell-based, human; conditions: for global TRPC1 protein expression in whole cell lysates: 10 minutes exposure
Method: TRPC1 is a prototypic calcium channel protein of the TRP family. PMN express multiple TRPC proteins that are known to traffic to the cell membrane during Ca entry. We therefore studied TRPC1 raft-trafficking in response to cholesterol as an initial proof of principle that raft cholesterol concentration might regulate the distribution of multiple Ca^2+-influx related proteins to or from the cell membrane. We analyzed 20 μl of each gradient fraction by electrophoresis on a SDS gel followed by Western blotting for TRPC1 protein. The primary rabbit anti-human TRPC1 antibody (Santa Cruz) was used at 1:1,600 dilution. Secondary goat anti-rabbit antibody was used at 1:16,000 dilution. An ECL Western blotting detection kit was used to develop the blots which were imaged as above.
We therefore used Western blots to probe for TRPC1 in fractions 2-4 of pooled normal volunteer PMN fractionated with or without prior incubation in 10 μg/mL cholesterol (FIG. 26).
Subsequently, we sought to determine the source of the increased TRPC1 in the lipid raft fractions. Whole cell lysates from cholesterol treated and untreated cells were compared (not shown). […] Since the events leading to calcium entry are very rapid, later time points were not studied. Finally, we assayed TRPC1 in individual raft fractions from concurrently treated and analyzed PMN specimens (FIG. 27). […] Thus a redistribution of TRPC1 occurs in response to cholesterol treatment which appears to reflect trafficking of the protein to raft fractions rather than de novo synthesis.

human PMN = experiment: PAF mediated SOCE in human PMN; format: cell-based
PMN [4] = experiment: PMN calcium entry responses to S1P; format: cell-based, human
Method: To evaluate whether Ca^2+-entry responses to S1P were raft dependent, we then disrupted lipid rafts using MBCD to bind raft cholesterol.
as §1

PMN [5] = experiment: Thapsigargin (TG) initiated Ca2+ entry in PMN; format: cell-based, human
Method: as §1
Since cholesterol had no discernable effect on ER Ca^2+ store release in response to PAF we examined the possibility that could play a direct role in the regulation of store-operated Ca^2+ entry; a Ca^2+ entry mechanism that is completely independent of GPCR activation. To study this we used thapsigargin (TG). TG blocks ER Ca^2+ ATPase pumps, thus depleting ER Ca^2+ stores directly and causing calcium entry independent of GPCR activation.

PMN lipid rafts (GM-1) = experiment: Immunofluorescent microscopy for GM-1 (FITC-CTB) in PMN rafts; format: cell-based, human; conditions: free cholesterol 10 μg/mL
[6] = fMLP/Tg RB after pre-incubation

Molecule: CCCCCCCCCCCCC/C=C/[C@@H](O)[C@@H](N)COP(=O)(O)O [S1P, sphingosine 1-phosphate, reference compound]
- reversal of SKI-2 inhibition of SOCE by exogenous S1P (PMN [1]; 5 M S1P, 30 μM SKI-2): totally reversed; also recorded: reverses 30 μM SKI-2 inhibition
- ratio of cholesterol to protein / cholesterol concentration in the lowest density raft fractions (PMN lipid raft fractions): increases in cholesterol concentration
- ratio of cholesterol to protein / cholesterol concentration in the lowest density raft fractions (PMN lipid raft fractions; listed as SIP): even greater increases in cholesterol concentration
- rescue of RB after SKI-2 inhibition (PMN [2]; S1P 5 uM after SKI-2 30 uM): rescue of RB
- restoration of RB by S1P after MβCD cholesterol depletion (PMN [2]; n=4-6): restored RB to control levels

Molecule: COc1ccc(CCN(C)CCCC(C#N)(c2ccc(OC)c(OC)c2)C(C)C)cc1OC (centres unmarked) [verapamil]
- effect of calcium channel blocker on cholesterol-mediated PMN calcium entry (human neutrophils (PMN); human PMN): not inhibited; also recorded: no effect
- effect of calcium channel blocker on cholesterol-mediated PMN calcium entry (human neutrophils (PMN); human PMN, listed as VER): no effect at any concentration

Molecule: Oc1ccc(Nc2nc(-c3ccc(Cl)cc3)cs2)cc1 [SKI-2]
- effect on SOCE initiated by fMLP and Tg (PMN [1]; fMLP 100 nM, Tg 1 uM): inhibited; also recorded: suppressing SOCE
- effect of SphK inhibition on fMLP/Tg induced RB (PMN [2]; 30 uM, n=4): blocked fMLP/Tg induced RB down to background levels

Molecule: COc1ccc(CCCOC(Cn2ccnc2)c2ccc(OC)cc2)cc1 (centres unmarked) [SKF96365]
- IC50 (human neutrophils (PMN); Neutrophil, human PMN, 3-4 experiments per condition, read-out: IC50 for block of cholesterol-mediated PMN calcium entry): ~30 µM
- effect of calcium channel blocker on cholesterol-mediated PMN calcium entry (human neutrophils (PMN); human PMN): inhibited
- effect of calcium channel blocker on cholesterol-mediated PMN calcium entry (human neutrophils (PMN); human PMN, listed as SKF): quantitatively inhibited

Molecule: methyl-β cyclodextrin [MβCD]
- effect on fMLP-linked Ca2+ entry responses (PMN [3]): suppressed
- global TRPC1 protein expression in whole cell lysates (TRPC1): No differences in global TRPC1 protein expression
- effect on release of Ca2+ from cell stores (PAF) (human PMN; PAF 100 nM): no effect whatsoever
- effect on PAF-initiated Ca2+ entry after cholesterol sequestration (human PMN; PAF 100 nM, MBCD 10 mM 10 minutes): blocked
- effect of MβCD on patient PMN Ca2+ entry responses to S1P (PMN [4]; injured patients' PMN): further suppressed
- effect of raft disruption on PMN calcium entry responses to S1P (PMN [4]; n=3): completely blocks calcium entry
- effect of raft disruption on PMN calcium entry responses to S1P (PMN [4]; n=3, listed as MBCD): completely blocked
- effect on TG initiated Ca2+ entry (PMN [5]): markedly inhibited
- change of cholesterol in raft fractions versus higher density fractions (PMN lipid raft fractions): removed cholesterol from raft fractions
- effect of cholesterol depletion on fMLP/Tg RB (PMN [2]): inhibited RB; also recorded: clear suppression of RB; also recorded: markedly suppressed RB responses
- effect of cholesterol depletion on fMLP/Tg RB (PMN [2]; listed as MBCD): blocks RB; also recorded: attenuated

Molecule: [La+3] [La^3+, lanthanum]
- inhibition of cholesterol mediated PMN Ca2+ influx by lanthanum (human neutrophils (PMN); 1 mM): inhibited; also recorded: almost totally inhibits

Molecule: CC(C)CCC[C@@H](C)[C@H]1CC[C@H]2[C@@H]3CC=C4C[C@@H](O)CC[C@]4(C)[C@H]3CC[C@]12C [cholesterol]
- effect of cholesterol concentrations above 10 μg/mL on PMN Ca2+ uptake (human neutrophils (PMN); above 10 μg/mL, direct stimulation and combination with S1P): suppress PMN Ca^2+ uptake
- direct calcium entry caused by cholesterol at re-addition dose (human neutrophils (PMN); cholesterol 3 ug/ml final): does not itself cause calcium entry
- direct effect of cholesterol on calcium entry into human PMN (human neutrophils (PMN); free cholesterol, albumin-free media): caused Ca entry without any antecedent release of calcium stores; also recorded: potent, dose-dependent activator; also recorded: direct dose-related response
- effect on fMLP-linked Ca2+ entry responses (PMN [3]): augmented
- effect of very high cholesterol concentrations on fMLP-mediated Ca2+ entry (PMN [3]; very high cholesterol concentrations): suppressed calcium entry
- global TRPC1 protein expression in whole cell lysates (TRPC1): No differences in global TRPC1 protein expression
- TRPC1 protein in membrane lipid raft fractions (TRPC1; pre-incubation in 10 μg/mL cholesterol): increases the amount of TRPC1 protein; also recorded: redistribution of the TRPC1 signal from higher density fractions into the raft fractions
- membrane GM-1 binding and raft coalescence (PMN lipid rafts (GM-1)): increased membrane GM-1 available for binding
- effect on release of Ca2+ from cell stores (PAF) (human PMN; PAF 100 nM): no effect upon Ca^2+ store mobilization
- effect of cholesterol present in cuvette on PAF Ca2+ entry in normal cells (human PMN; normal PMN, brief exposure): increased Ca^2+ entry
- rescue of PAF Ca2+ entry by cholesterol after MβCD (human PMN; small amounts of cholesterol (3 ug/ml final)): rescued Ca^2+entry
- effect of cholesterol on patient PMN calcium entry response to S1P (PMN [4]; injured patients' PMN, cholesterol 30 ug/ml, n=8 PMN isolates): restored to healthy volunteer levels; also recorded: exceed basal levels
- reversal of MβCD effect on S1P calcium entry by cholesterol replenishment (PMN [4]; n=3): reversible; also recorded: reversal of the MβCD effect
- reversal of MβCD inhibition of TG Ca2+ entry by cholesterol re-addition (PMN [5]): immediately reversed and even overcome
- ratio of cholesterol to protein / cholesterol concentration in the lowest density raft fractions (PMN lipid raft fractions): more than doubles
- change of cholesterol in raft fractions versus higher density fractions (PMN lipid raft fractions): incorporated preferentially into the low density fractions
- rescue of RB by cholesterol in MBCD treated neutrophils (PMN [2]; cholesterol 30 ug/ml): rescued RB from MβCD inhibition; also recorded: significantly rescued that RB
- external cholesterol concentration yielding optimal PMN oxidant production (PMN [2]; [6]): 10 µg/mL
- external cholesterol concentration yielding optimal PMN oxidant production (molar) (PMN [2]; [6]): ~25 µM
- effect of increasing (high) cholesterol concentrations on RB (PMN [2]; pre-incubation, higher concentrations (FIG. 21B columns 6-7)): decreased the degree of respiratory burst
- effect of lower cholesterol concentrations on RB (PMN [2]; pre-incubation, lower concentrations (FIG. 21B columns 3-5)): dose-dependent augmentation of RB

Molecule: COC[C@@H]([C@H](O)[C@H](O)C(=O)NCC[C@H](C)c1nc(/C=C/C[C@@H]2O[C@]3(C[C@@H](O)[C@@H]2C)O[C@H]([C@H](C[C@H](O)[C@H](C)[C@H](O)[C@H](C)/C=C(C)/C(C)=C/C=C/C(C)=C\C#N)OC)[C@H](OP(=O)(O)O)C3(C)C)co1)N(C)C [CalyA, Calyculin A]
- effect on cholesterol mediated Ca2+ influx (actin reorganization) (human neutrophils (PMN)): abolished

Molecule: C=C1[C@@H](C)[C@H]2[C@H](Cc3ccccc3)NC(=O)[C@]23[C@H](OC(C)=O)/C=C/[C@@](C)(O)C(=O)[C@@H](C)C/C=C/[C@H]3[C@@H]1O [CytoD, Cytochalasin D]
- effect on cholesterol mediated Ca2+ influx (actin reorganization) (human neutrophils (PMN)): reversed the inhibition
